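Grown in 96-well plates, cells were treated for 48 hours with each compound at five concentrations. Insufficient inhibition: endpoint recorded as highest concentration tested. Abbreviation: GI50, concentration required for 50% inhibition of growth.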 Calls of active or inactive are those of the source. Rule as the data show it: active = GI50 up to about 1.1 µM and inactive = higher. Where only a bound is given, the exact number is not on record here.

Some test systems named below: SN12C; UO-31; HCC 2998; MDA-MB-231; A498; SK-OV-3; HOP-92; OVCAR-4; NCI-H23; MCF7; UACC-62; HCT-116; SK-MEL-5; UACC-257; COLO 205; ACHN; MDA-MB-435; NCI-H226; RXF 393; SK-MEL-2.
Holding throughout (test): NCI tumour cell line growth inhibition, 48 h

In the case of `O=C1C(Cl)=C(N2CCN(c3ccccn3)CC2)C(=O)c2c(O)ccc(O)c21`, the GI50 in the assay with SN12C was 1.88 µM (inactive); in the assay on UO-31, 1.87 µM (inactive); in the assay on HCC 2998, 2.51 µM (inactive); with MDA-MB-231, 1.74 µM (inactive); in the assay with A498 it was 4.25 µM (inactive); in the assay on SK-OV-3 it was 8.32 µM (inactive). The GI50 in the assay with HOP-92 was 1.21 µM (inactive); with OVCAR-4, 1.59 µM (inactive); with NCI-H23, 1.18 µM (inactive); with MCF7, 1.42 µM (inactive); in the assay on UACC-62 it was 0.752 µM (active); in the assay with HCT-116 it was 1.7 µM (inactive). The GI50 in the assay on SK-MEL-5 was 1.42 µM (inactive); in the assay on UACC-257 it was 1.84 µM (inactive); in the assay with COLO 205, 1.43 µM (inactive); with ACHN it was 2.42 µM (inactive); in the assay with MDA-MB-435, 4.97 µM (inactive); in the assay with NCI-H226 it was 4.69 µM (inactive). Besides, the GI50 in the assay on RXF 393 is 1.74 µM (inactive).
For the compound `COC(=O)c1c2c(cc3c1CC1(Cc4cc5c(cc4C1)CCC5)C3)CCC2`, the GI50 with UO-31, in the assay on HCC 2998, with MDA-MB-231, in the assay with A498, with SK-OV-3 and in the assay on HOP-92 was > 100 µM (inactive) throughout. The GI50 in the assay on OVCAR-4, in the assay on NCI-H23, with SK-MEL-2, in the assay with MCF7, with HCT-116 and with SK-MEL-5 was > 100 µM (inactive) each time. The GI50 is > 100 µM (inactive) in the assay with UACC-257, > 100 µM (inactive) with ACHN, 77.4 µM (inactive) in the assay with MDA-MB-435 and > 100 µM (inactive) in the assay on RXF 393.
As for `COc1cc2c3c([nH]c2c(OC)c1OC)CCN(Cc1ccccc1)C3`, the GI50 in the assay with SN12C was 45.6 µM (inactive); in the assay on HCC 2998, 17.9 µM (inactive); in the assay on MDA-MB-231 it was 32.8 µM (inactive); in the assay with A498 it was 22.3 µM (inactive); in the assay on HOP-92 it was 6.27 µM (inactive); in the assay with OVCAR-4, 64.7 µM (inactive). The GI50 in the assay with NCI-H23 is 33.1 µM (inactive); in the assay on SK-MEL-2 it was 22.6 µM (inactive); with MCF7, 18.1 µM (inactive); in the assay on UACC-62, 32.3 µM (inactive); in the assay on HCT-116, 33.9 µM (inactive); in the assay on SK-MEL-5, 18.9 µM (inactive). Also, the GI50 is 19.9 µM (inactive) in the assay on UACC-257; 17 µM (inactive) with COLO 205; 47.8 µM (inactive) with ACHN; 15.6 µM (inactive) with MDA-MB-435; 20.9 µM (inactive) in the assay with NCI-H226; > 100 µM (inactive) in the assay with RXF 393.
As to `CC1(C)Oc2ccc3ccc(=O)oc3c2C(O)C1O` (configuration not stated), the GI50 in the assay on SN12C is > 100 µM (inactive); with UO-31 it was 27.5 µM (inactive); with HCC 2998 it was > 100 µM (inactive); in the assay on MDA-MB-231, 71.8 µM (inactive); in the assay with A498, > 100 µM (inactive); in the assay on HOP-92 it was 57.8 µM (inactive). In addition, the GI50 in the assay with OVCAR-4 was 39.5 µM (inactive); in the assay with NCI-H23 it was 44.2 µM (inactive); with SK-MEL-2, > 100 µM (inactive); in the assay on MCF7, 33.9 µM (inactive); in the assay with UACC-62, 8.39 µM (inactive); in the assay on HCT-116, 38.8 µM (inactive). In addition, the GI50 with SK-MEL-5 was 15.9 µM (inactive); in the assay on UACC-257, 29.4 µM (inactive); in the assay with COLO 205 it was 21.8 µM (inactive); in the assay with ACHN, 44.6 µM (inactive); in the assay on MDA-MB-435 it was 33.7 µM (inactive); with NCI-H226 it was 48.3 µM (inactive). Moreover, the GI50 in the assay on RXF 393 was 67.1 µM (inactive).
`O=c1[nH]nc(Cc2c[nH]c3ccccc23)o1`: the GI50 in the assay with SN12C, in the assay on UO-31, with HCC 2998, in the assay on MDA-MB-231, with A498 and with HOP-92 was > 100 µM (inactive) throughout. In addition, the GI50 in the assay on OVCAR-4, in the assay with NCI-H23, with SK-MEL-2, in the assay with MCF7, with UACC-62 and with HCT-116 was > 100 µM (inactive) each time. Also, the GI50 with SK-MEL-5, with UACC-257, in the assay on COLO 205, in the assay on ACHN, in the assay on MDA-MB-435 and with NCI-H226 was > 100 µM (inactive) in each case. Moreover, the GI50 in the assay with RXF 393 is > 100 µM (inactive).
Take `C[C@@H]1CCC2C(C)(C)C(/C=C\C=O)C3(C)OC213` (some centres not stated): the GI50 was 52.5 µM (inactive) with UO-31; 48.5 µM (inactive) in the assay on HCC 2998; 49.2 µM (inactive) in the assay with MDA-MB-231; > 100 µM (inactive) with A498; 44.6 µM (inactive) with SK-OV-3; 26.5 µM (inactive) with HOP-92. Further, the GI50 in the assay on OVCAR-4 is 54.5 µM (inactive); with NCI-H23, 35.6 µM (inactive); with SK-MEL-2, 42.9 µM (inactive); with MCF7 it was 40.6 µM (inactive); in the assay with UACC-62, 53.2 µM (inactive); in the assay with HCT-116, 27.9 µM (inactive). Also, the GI50 is 20.3 µM (inactive) in the assay on SK-MEL-5; 45.8 µM (inactive) in the assay with UACC-257; 25.4 µM (inactive) with COLO 205; 71.4 µM (inactive) in the assay on ACHN; 27.5 µM (inactive) in the assay with MDA-MB-435; 33.3 µM (inactive) in the assay with RXF 393.
With `O=C(O)C1C2C=CC(C2)C1c1ccccc1` (configuration not stated), the GI50 with SN12C, with UO-31, in the assay on HCC 2998, in the assay on MDA-MB-231, in the assay with A498 and in the assay on SK-OV-3 was > 100 µM (inactive) each time. Also, the GI50 with HOP-92 was > 100 µM (inactive); with NCI-H23 it was > 100 µM (inactive); in the assay with SK-MEL-2 it was 31.6 µM (inactive); with MCF7, > 100 µM (inactive); in the assay with UACC-62 it was > 100 µM (inactive); in the assay on HCT-116 it was > 100 µM (inactive). Also, the GI50 in the assay on SK-MEL-5, in the assay with UACC-257, with COLO 205, in the assay on ACHN, in the assay on MDA-MB-435 and in the assay with NCI-H226 was > 100 µM (inactive) each time. Also, the GI50 in the assay on RXF 393 was > 100 µM (inactive).
On to `Cc1oc2c(cc(O)c3cc(O)ccc32)c2cccc1-2`, for which the GI50 with SN12C, with UO-31, in the assay with HCC 2998, in the assay on MDA-MB-231, in the assay on A498 and in the assay with SK-OV-3 was > 100 µM (inactive) throughout. Also, the GI50 with HOP-92 was > 100 µM (inactive); with NCI-H23 it was > 100 µM (inactive); with SK-MEL-2, > 100 µM (inactive); with MCF7 it was 33.4 µM (inactive); in the assay with UACC-62, > 100 µM (inactive); in the assay with HCT-116 it was > 100 µM (inactive). For the same compound, the GI50 in the assay with SK-MEL-5, in the assay on UACC-257, with COLO 205, in the assay on ACHN, in the assay on MDA-MB-435 and in the assay on RXF 393 was > 100 µM (inactive) throughout.
Regarding `C[C@]12CC[C@H](O)CC1=CC[C@@H]1C2CC[C@]2(C)Nc3c(cnn3-c3ccc(F)cc3)CC12` (some centres not stated), the GI50 with SN12C is 37.4 µM (inactive); in the assay with UO-31, > 39.4 µM (inactive); in the assay on HCC 2998, > 68.2 µM (inactive); with MDA-MB-231 it was > 41.8 µM (inactive); with A498, 2.17 µM (inactive); in the assay on SK-OV-3 it was 15.7 µM (inactive). The GI50 in the assay with HOP-92 is 21.4 µM (inactive); with OVCAR-4, 19 µM (inactive); in the assay on NCI-H23, 26.5 µM (inactive); in the assay on MCF7 it was > 52.2 µM (inactive); in the assay with UACC-62, 14.6 µM (inactive); with HCT-116 it was 14.7 µM (inactive). Further, the GI50 with SK-MEL-5 was 25.2 µM (inactive); with UACC-257 it was 60.8 µM (inactive); in the assay on ACHN it was 16 µM (inactive); in the assay on MDA-MB-435 it was 41.2 µM (inactive); in the assay with NCI-H226, 40.9 µM (inactive); with RXF 393, 2.25 µM (inactive).
Consider `O=C1CCSc2c(cnc3ccccc23)N1`, for which the GI50 is > 100 µM (inactive) in the assay on SN12C; 60.7 µM (inactive) in the assay on UO-31; > 100 µM (inactive) in the assay on MDA-MB-231; 32.1 µM (inactive) in the assay with A498; > 100 µM (inactive) with SK-OV-3; > 100 µM (inactive) in the assay with HOP-92. Further, the GI50 with OVCAR-4 is 67.3 µM (inactive); in the assay with NCI-H23, > 100 µM (inactive); in the assay with SK-MEL-2 it was 80 µM (inactive); in the assay on MCF7, 97.1 µM (inactive); in the assay with UACC-62, > 100 µM (inactive); in the assay with HCT-116 it was > 100 µM (inactive). For the same compound, the GI50 in the assay with SK-MEL-5 was > 100 µM (inactive); in the assay with UACC-257, > 100 µM (inactive); with COLO 205, > 100 µM (inactive); in the assay with ACHN, > 100 µM (inactive); in the assay on MDA-MB-435, > 100 µM (inactive); in the assay on NCI-H226, 34.8 µM (inactive). In the assay on RXF 393, the GI50 is 34.4 µM (inactive).
Consider `C=C1c2nc3ccccc3n2C=C(c2ccccc2)N1c1ccc(OC)cc1`, for which the GI50 in the assay on SN12C is 65.3 µM (inactive); in the assay on UO-31 it was 4.52 µM (inactive); in the assay on MDA-MB-231, 40.2 µM (inactive); with A498 it was > 100 µM (inactive); with SK-OV-3 it was 34.6 µM (inactive); in the assay on HOP-92 it was 31.1 µM (inactive). The GI50 in the assay on OVCAR-4 is 13.7 µM (inactive); in the assay with NCI-H23, 11.4 µM (inactive); in the assay on SK-MEL-2, 28.6 µM (inactive); in the assay with MCF7 it was 6.81 µM (inactive); in the assay on UACC-62 it was 17.7 µM (inactive); with HCT-116 it was 17.5 µM (inactive). For the same compound, the GI50 in the assay on SK-MEL-5 was 11.1 µM (inactive); in the assay with UACC-257, 31.8 µM (inactive); in the assay on COLO 205 it was 25.4 µM (inactive); with ACHN, 13 µM (inactive); in the assay on MDA-MB-435, 33.5 µM (inactive); in the assay on NCI-H226, 11 µM (inactive). Further, in the assay with RXF 393, the GI50 is 11.7 µM (inactive).

(Values after ChEMBL document CHEMBL1201862, “PubChem BioAssay data set” (2004).)
